Results reported in patent US4661516A, “Diaminocyclohexane platinum complexes” (Research Corporation, priority 1984, dated 1987).
Where two headings read alike, the source gives them in different places.

Tests used:
[1] = test system: Wild type L1210 leukemic cells; assay: In vitro cytotoxicity, wild type L1210 leukemic cells (L1210/0); assay type: cell-based; details: L1210, 72 hours incubation
Procedure: Four ml of cell suspension (10^5 cells/ml) are added to culture tubes and the appropriate concentration (0.01, 0.1, 1 or 10 μg/ml final concentration) of drug added to the culture tubes. After 72 hours of incubation, the cell concentration of control and experimental cultures are determined with the aid of a Coulter Counter® Model ZBf and the percent inhibition calculated. […]

[2] = test system: L1210 leukemia cells (L1210/PDD); assay: In vitro cytotoxicity / cross-resistance, L1210/PDD (L1210/DDP) cells resistant to cisdiamminedichloroplatinum(II); assay type: cell-based; details: for ID50 L1210/DDP: Tables VII and VIII, 5760 min; for ID50 L1210/PDD: 96 hours
Procedure: Four ml of cell suspension were added to culture tubes and the appropriate concentration (0.01, 0.1, 1 or 10 μg/ml final drug concentration) was added. After 96 hours the cell concentration of control and experimental cultures were calculated with the aid of a Coulter Counter® Model ZBf and the percent inhibition calculated.

Male albino mice = assay: Acute toxicity, single intraperitoneal injection (Example 19); assay type: in vivo; details: single i.p.; for Calculated LD10 / Calculated LD50 / Calculated LD90: 14 days
Procedure: Fourteen days after treatment all surviving mice were sacrified and the LD10, LD50 and LD90 were calculated.

L1210/0 leukemia cells = assay: In vivo anti-tumor activity, L1210 (L1210/0), multiple i.p. doses; set-up: species or system BDF1 mice; details: for Maximal Effective Dose: i.p. on days 1, 5 and 9
Procedure: BDF1 mice were inoculated intraperitoneally with 10^6 L1210 cells. About 24 hours after inoculation of the cells, the mice were injected intraperitoneally with varying dosages of complexes of the present invention. Six mice were used for each dosage level in each experiment with an equal number of control mice inoculated with 10^6 L1210 cells and left untreated with a given complex. The results [%T/C=(survival time of treated animals/survival time of control animals)×100] are set forth below. Long term survival signifies that animals were alive 60 days after inoculation with L1210 cells.
The procedure of Example 16 was repeated except that the treated animals were injected with multiple doses of the complex as indicated below:
(§1) The anti-tumor activity of compound number 3 was evaluated against cells sensitive to (L1210/0) and resistant to (L1210/PDD) the standard platinum complex cis-diamminedichloroplatinum(II).
The following complexes were tested in vivo oncolytic activity following 3 i.p. injections (days 1, 5, 9) according to the protocol described in Examples 16 and 17.
BDF1 mice were innoculated intraperitoreally with 10^6 L1210 leukemia cells and treatment was begun on the next day (day 1). Two treatment schedules, i.e. single i.p. injection of the drug and i.p. injections on days 1, 5 and 9 according to the protocol described in Examples 16 and 17 were used.

L1210 cells = assay: In vivo anti-tumor activity, L1210, single i.p. injection; set-up: species or system BDF1 mice; details: for Maximal Effective Dose: single i.p. injection
Procedure: About 24 hours after inoculation of the cells, the mice were injected intraperitoneally with varying dosages of complexes of the present invention. […] Long term survival signifies that animals were alive 60 days after inoculation with L1210 cells.

L1210/PDD = assay type: in vivo, BDF1 mice; details: days 1,5,9
Procedure: as §1

[3] = BUN (RUN [sic]) with the acute lethality data (Table XIII); assay type: in vivo; details: mean + 1 S.D.
[4] = Acute lethality, single intraperitoneal injection (Table XIII); assay type: in vivo
B16 cells = assay: Melanotic melanoma test, i.p. inoculated B16 melanoma; assay type: in vivo, BDF1 mice
Procedure: The animals used were BDF1 mice, all of the same sex, weighing a minimum of 18 g. and all within a 4 g. weight range. There were 6 animals per test group. […] The test compounds were administered intraperitoneally on days 1, 5 and 9 at various doses. The animals were weighed and survivors were recorded on a regular basis for 60 days. The median survival time and the ratio of survival time for treated (T)/control (C) animals were calculated. […] The criterion for efficacy is T/C×100≥125%.

[5] = Example 18, L1210/0, 25 mg/kg, days 1,5,9
[6] = Example 18, L1210/0, 50 mg/kg, days 1,5,9
[7] = Tables X and XI, days 1, 5 and 9, at maximal effective dose, alive 60 days after tumor inoculation
[8] = Tables X and XI, i.p. on days 1, 5 and 9, at maximal effective dose
[9] = Table IX, single i.p., at maximal effective dose

NC1CCCCC1N.O.O=C1OC(C(O)CO)C([O-])=C1O.O=C1OC(C(O)CO)C([O-])=C1O.[Pt+2] (stereo not drawn) [Compound 3, cis-bis-ascorbato(DACH)Pt(II).1H2 O]
ID50 [1]: 5.0 µg/mL | ID50 L1210/DDP [2]: 5.0 µg/mL | ID50 L1210/PDD [2]: 2.6 µg/mL | DEATHS/TREATED (Male albino mice; 110 mg/kg): 1/6 | DEATHS/TREATED (Male albino mice; 125 mg/kg): 2/6 | DEATHS/TREATED (Male albino mice; 140 mg/kg): 4/6 | DEATHS/TREATED (Male albino mice; 175 mg/kg): 6/6 | Calculated LD10 (Male albino mice): 108 mg/kg | Calculated LD50 (Male albino mice): 125 mg/kg | Calculated LD90 (Male albino mice): 150 mg/kg | % T/C (L1210/0 leukemia cells; 5 mg/kg, days 1-9): 142% | % T/C (L1210/0 leukemia cells; 10 mg/kg, days 1,5,9): 123% | % T/C (L1210/0 leukemia cells; 10 mg/kg, days 1-9): 184% | % T/C (L1210/0 leukemia cells; 20 mg/kg, days 1,5,9): 196% | Long Term Survivors (L1210/0 leukemia cells; 20 mg/kg, days 1,5,9): 1/6 | % T/C (L1210/0 leukemia cells; 20 mg/kg, days 1-9): 239% | Long Term Survivors (L1210/0 leukemia cells; 20 mg/kg, days 1-9): 1/6 | % T/C (L1210/0 leukemia cells; 25 mg/kg, days 1,5,9): 176% | % T/C (L1210/0 leukemia cells; 30 mg/kg, days 1,5,9): 257% | Long Term Survivors (L1210/0 leukemia cells; 30 mg/kg, days 1,5,9): 1/6 | % T/C (L1210/0 leukemia cells; 30 mg/kg, days 1,5,9,13): 273% | Long Term Survivors (L1210/0 leukemia cells; 30 mg/kg, days 1,5,9,13): 1/6 | % T/C (L1210/0 leukemia cells; Example 18, L1210/0, 6.25 mg/kg, days 1,5,9): 117% | % T/C (L1210/0 leukemia cells; Example 18, L1210/0, 12.5 mg/kg, days 1,5,9): 135% | % T/C (L1210/0 leukemia cells; [5]): 181% | SURVIVORS (L1210/0 leukemia cells; [5]): 2/10 | % T/C (L1210/0 leukemia cells; [6]): 247% | SURVIVORS (L1210/0 leukemia cells; [6]): 1/10 | % T/C (L1210/0 leukemia cells; Example 18, L1210/0, 100 mg/kg, days 1,5,9): 104% | % T/C (L1210 cells; single i.p., 50 mg/kg): 125% | % T/C (L1210 cells; single i.p., 60 mg/kg): 163% | % T/C (L1210 cells; single i.p., 75 mg/kg): 143% | % T/C (L1210 cells; single i.p., 90 mg/kg): 145% | % T/C (L1210 cells; single i.p., 100 mg/kg): Toxic | % T/C (L1210/PDD; 6.25 mg/kg): 115% | % T/C (L1210/PDD; 12.5 mg/kg): 124% | % T/C (L1210/PDD; 25 mg/kg): 135% | % T/C (L1210/PDD; 50 mg/kg): 223% | SURVIVORS (L1210/PDD; 50 mg/kg): 3/10 | % T/C (L1210/PDD; 100 mg/kg): 172%

O.O.O=C([O-])C[N-]CC(=O)O.[NH-]C1CCCCC1[NH-].[Pt] [Compound 11, iminodiacetato(DACH)Pt(II).2H2 O]
ID50 [1]: 4.2 µg/mL | RUN [3]: 23 ± 4 mg/100 ml | ID50 L1210/PDD [2]: 1.6 µg/mL | DEATHS/TREATED (Male albino mice; 85 mg/kg): 1/6 | DEATHS/TREATED (Male albino mice; 100 mg/kg): 3/6 | DEATHS/TREATED (Male albino mice; 125 mg/kg): 5/6 | DEATHS/TREATED (Male albino mice; 158 mg/kg): 4/6 | DEATHS/TREATED (Male albino mice; 200 mg/kg): 6/6 | Calculated LD10 (Male albino mice): 80 mg/kg | Calculated LD50 (Male albino mice): 115 mg/kg | Calculated LD90 (Male albino mice): 155 mg/kg | % T/C (L1210/0 leukemia cells; 25 mg/kg, days 1,5,9): 199% | % T/C (L1210/0 leukemia cells; 50 mg/kg, days 1,5,9): 220% | Long Term Survivors (L1210/0 leukemia cells; 50 mg/kg, days 1,5,9): 2/6 | Long Term Survivors (L1210/0 leukemia cells; [7]): 2/6 | Maximal Effective Dose (L1210/0 leukemia cells; Tables X and XI): 50 mg/kg | % T/C (L1210/0 leukemia cells; [8]): 220% | Maximal Effective Dose (L1210 cells; Table IX): 50 mg/kg | % T/C (L1210 cells; [9]): 163% | % T/C (L1210 cells; single i.p., 50 mg/kg): 163% | % T/C (L1210 cells; single i.p., 100 mg/kg): 109% | toxicity remark (L1210 cells; single i.p., 100 mg/kg): Apparent Toxicity | LD10 [4]: 53 mg/kg | LD50 [4]: 107 mg/kg | LD90 [4]: 169 mg/kg

CN(CC(=O)[O-])CC(=O)[O-].NC1CCCCC1N.O.[Pt+2] [Compound 28, N--Methyliminodiacetato(DACH)Pt(II).1H2 O]
ID50 [1]: 1.6 µg/mL | RUN [3]: 22 ± 3 mg/100 ml | ID50 L1210/DDP [2]: 1.3 µg/mL | Maximal Effective Dose (B16 cells; B16, i.p. days 1, 5 and 9): 25 mg/kg | % T/C (B16 cells; B16, i.p. days 1, 5 and 9, at maximal effective dose): 205% | Long Term Survivors (B16 cells; B16, i.p. days 1, 5 and 9, at maximal effective dose, 60 days): 0/6 | Long Term Survivors (L1210/0 leukemia cells; [7]): 5/6 | Maximal Effective Dose (L1210/0 leukemia cells; Tables X and XI): 12.5 mg/kg | % T/C (L1210/0 leukemia cells; [8]): 550% | Maximal Effective Dose (L1210 cells; Table IX): 25 mg/kg | % T/C (L1210 cells; [9]): 180% | % T/C (L1210 cells; single i.p., 12.5 mg/kg): 161% | % T/C (L1210 cells; single i.p., 25 mg/kg): 185% | % T/C (L1210 cells; single i.p., 50 mg/kg): Toxic | LD10 [4]: 49 mg/kg | LD50 [4]: 92 mg/kg | LD90 [4]: 170 mg/kg
